Common to all, as to type: biochemical
For assay [1], the target named is Bovine LOX (Bos taurus (Bovine), UniProt P33072). As to the kind of experiment: LOX inhibition, peroxidase-coupled Amplex Red amine oxidase assay. Conditions: 30 min preincubation at 37° C., putrescine substrate. In outline: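 Bovine LOX in 1.2 M urea, 50 mM sodium borate pH 8.2 with 1 μM mofegiline and 0.5 mM pargyline; putrescine at twice KM (e.g. 20 mM for LOX) with Amplex Red/HRP. Fluorescence (ex 565/em 590 nm) read kinetically over 30 min at 37–45 °C; IC50 from slopes.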

Assay [2] concerns the target Human LOXL2 (Homo sapiens (Human), UniProt Q9Y4K0). As to the kind of experiment: LOXL2 inhibition, peroxidase-coupled Amplex Red amine oxidase assay. The conditions noted are these: 30 min preincubation at 37° C., putrescine substrate. In short, it runs like this: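 Enzyme in 1.2 M urea, 50 mM sodium borate pH 8.2 with 1 μM mofegiline and 0.5 mM pargyline, preincubated 30 min at 37° C with compound (11-point CRC). Putrescine at twice KM (10 mM for LOXL2) with Amplex Red/HRP; fluorescence (ex 565, em 590) read kinetically 30 min; IC50 from slopes.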

Assay [3] has as its target human recombinant SSAO/VAP-1 (Homo sapiens (Human), UniProt Q16853). As to the kind of experiment: Inhibition of human recombinant SSAO/VAP-1 amine oxidase activity. Conditions: 30 min preincubation at 37° C., 600 μM benzylamine. In short, it runs like this:
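Purified SSAO/VAP-1 (residues 34-763, expressed in CHO Lec 8 cells; 0.25 μg/mL) preincubated 30 min at 37° C with compound in 0.1 M sodium phosphate pH 7.4. Reaction mix of 600 μM benzylamine, 120 μM Amplex Red and 1.5 U/mL HRP added; fluorescence (ex 565/em 590 nm) read every 2.5 min for 30 min; IC50 from kinetic slopes over 4-11 point curves.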

For assay [4], the target named is Recombinant human MAO-B (Homo sapiens (Human), UniProt P27338). Nature of the assay: Inhibition of human recombinant MAO-B. The conditions noted are these: benzylamine 100 μM. In short, it runs like this:
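Recombinant human MAO-B used as enzyme source (0.06 mg/mL, stated concentration). Run as for the human SSAO/VAP-1 assay, except benzylamine substrate at 100 μM.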

Structures can show the parent of a compound that is named as a salt.

By IC50 is commonly meant the concentration needed to halve the response being measured.

Chain of Bovine LOX (P33072 170-418): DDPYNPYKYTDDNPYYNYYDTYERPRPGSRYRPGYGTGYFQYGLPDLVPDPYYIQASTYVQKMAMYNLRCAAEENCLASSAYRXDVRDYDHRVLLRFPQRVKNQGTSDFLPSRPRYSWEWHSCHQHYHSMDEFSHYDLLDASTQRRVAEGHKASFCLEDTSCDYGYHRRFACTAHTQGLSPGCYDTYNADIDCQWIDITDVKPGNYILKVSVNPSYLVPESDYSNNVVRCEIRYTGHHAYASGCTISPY
Chain of Recombinant human MAO-B (P27338 whole entry): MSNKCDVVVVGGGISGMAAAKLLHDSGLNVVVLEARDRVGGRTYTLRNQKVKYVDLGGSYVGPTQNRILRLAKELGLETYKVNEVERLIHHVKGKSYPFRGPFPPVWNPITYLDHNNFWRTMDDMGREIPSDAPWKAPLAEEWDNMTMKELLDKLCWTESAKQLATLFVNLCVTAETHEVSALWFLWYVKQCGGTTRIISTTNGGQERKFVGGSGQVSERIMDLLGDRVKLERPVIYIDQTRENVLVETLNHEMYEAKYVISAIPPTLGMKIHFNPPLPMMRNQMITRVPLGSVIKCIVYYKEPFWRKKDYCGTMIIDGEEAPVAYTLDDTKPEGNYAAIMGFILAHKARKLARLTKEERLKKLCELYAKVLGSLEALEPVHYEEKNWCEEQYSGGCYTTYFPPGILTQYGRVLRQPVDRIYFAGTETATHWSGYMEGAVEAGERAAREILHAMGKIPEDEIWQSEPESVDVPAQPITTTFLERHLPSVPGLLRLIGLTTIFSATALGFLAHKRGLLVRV
Chain of human recombinant SSAO/VAP-1 (Q16853 34-763): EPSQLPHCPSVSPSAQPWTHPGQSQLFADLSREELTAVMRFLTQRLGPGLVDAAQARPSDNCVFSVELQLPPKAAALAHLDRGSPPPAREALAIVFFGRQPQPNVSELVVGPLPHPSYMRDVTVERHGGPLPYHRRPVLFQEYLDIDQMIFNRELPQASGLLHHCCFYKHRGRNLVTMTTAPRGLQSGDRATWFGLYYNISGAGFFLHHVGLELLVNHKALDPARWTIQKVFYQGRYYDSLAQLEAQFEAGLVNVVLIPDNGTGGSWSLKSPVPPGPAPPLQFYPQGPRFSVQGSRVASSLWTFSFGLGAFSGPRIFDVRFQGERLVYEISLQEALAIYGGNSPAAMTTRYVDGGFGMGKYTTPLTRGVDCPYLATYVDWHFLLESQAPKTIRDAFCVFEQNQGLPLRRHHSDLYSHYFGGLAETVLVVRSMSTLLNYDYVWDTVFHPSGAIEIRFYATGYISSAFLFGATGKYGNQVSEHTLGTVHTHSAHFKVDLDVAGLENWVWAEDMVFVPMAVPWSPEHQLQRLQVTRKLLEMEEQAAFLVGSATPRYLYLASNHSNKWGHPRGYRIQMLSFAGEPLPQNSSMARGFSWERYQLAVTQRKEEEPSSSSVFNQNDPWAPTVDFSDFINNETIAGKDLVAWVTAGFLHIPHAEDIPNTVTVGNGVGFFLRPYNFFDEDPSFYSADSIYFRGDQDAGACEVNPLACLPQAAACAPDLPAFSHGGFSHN
Chain of Human LOXL2 (Q9Y4K0 26-774): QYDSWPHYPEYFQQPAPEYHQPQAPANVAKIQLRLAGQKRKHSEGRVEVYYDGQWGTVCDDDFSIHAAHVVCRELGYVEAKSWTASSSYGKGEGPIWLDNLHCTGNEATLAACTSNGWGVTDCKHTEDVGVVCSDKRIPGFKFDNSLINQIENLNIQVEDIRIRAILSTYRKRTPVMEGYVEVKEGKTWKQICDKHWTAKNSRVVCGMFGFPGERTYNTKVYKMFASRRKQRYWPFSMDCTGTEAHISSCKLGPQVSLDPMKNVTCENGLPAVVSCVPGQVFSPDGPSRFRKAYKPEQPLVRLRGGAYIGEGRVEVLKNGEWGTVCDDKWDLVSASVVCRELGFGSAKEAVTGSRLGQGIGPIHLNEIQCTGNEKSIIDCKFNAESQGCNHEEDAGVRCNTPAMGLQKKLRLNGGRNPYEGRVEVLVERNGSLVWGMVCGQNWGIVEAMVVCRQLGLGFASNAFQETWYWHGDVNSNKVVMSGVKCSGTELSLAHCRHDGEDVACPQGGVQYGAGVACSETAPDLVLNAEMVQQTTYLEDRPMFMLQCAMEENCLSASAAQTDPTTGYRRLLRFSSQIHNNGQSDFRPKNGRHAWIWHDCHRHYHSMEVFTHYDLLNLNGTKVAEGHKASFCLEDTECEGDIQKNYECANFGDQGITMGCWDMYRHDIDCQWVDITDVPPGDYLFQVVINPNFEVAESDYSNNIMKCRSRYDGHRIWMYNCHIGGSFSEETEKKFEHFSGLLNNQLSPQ

Consider `Cc1c(-c2cccc(S(=O)(=O)N(C)C)c2)c2nc(C(=O)N(C)C)ccc2n1C/C(F)=C/CN` [Compound 44, (Z)-1-(4-amino-2-fluorobut-2-en-1-yl)-3-(3-(N,N-dimethylsulfamoyl)phenyl)-N,N,2-trimethyl-1H-pyrrolo[3,2-b]pyridine-5-carboxamide], for which the IC50 in assay [1] is over 0.3 µM; in assay [2], under 0.3 µM; in assay [3] it was over 3 µM; in assay [4], over 3 µM.

For the compound `Cc1c(-c2cccc(S(=O)(=O)N(C)C)c2)c2nc(C(=O)NC(C)C)ccc2n1C/C(F)=C/CN` [Compound 45, (Z)-1-(4-amino-2-fluorobut-2-en-1-yl)-3-(3-(N,N-dimethylsulfamoyl)phenyl)-N-isopropyl-2-methyl-1H-pyrrolo[3,2-b]pyridine-5-carboxamide], the IC50 is over 0.3 µM in assay [1], under 0.3 µM in assay [2], over 3 µM in assay [3] and over 3 µM in assay [4].

Consider `CNC(=O)c1ccc2c(n1)c(-c1cccc(S(=O)(=O)N(C)C)c1)c(C)n2C/C(F)=C/CN` [Compound 46, (Z)-1-(4-amino-2-fluorobut-2-en-1-yl)-3-(3-(N,N-dimethylsulfamoyl)phenyl)-N,2-dimethyl-1H-pyrrolo[3,2-b]pyridine-5-carboxamide], for which the IC50 in assay [1] was over 0.3 µM; in assay [2], under 0.3 µM; in assay [3], over 3 µM; in assay [4] it was over 3 µM.

For the compound `Cc1c(-c2cccc(S(=O)(=O)N(C)C)c2)c2cccc(C(=O)N(C)C)c2n1C/C(F)=C/CN` [Compound 47, (Z)-1-(4-amino-2-fluorobut-2-en-1-yl)-3-(3-(N,N-dimethylsulfamoyl)phenyl)-N,N,2-trimethyl-1H-indole-7-carboxamide], the IC50 in assay [1] was over 0.3 µM; in assay [2], under 0.3 µM; in assay [3] it was over 3 µM; in assay [4], over 3 µM.

On to `Cc1c(-c2cccc(S(=O)(=O)N(C)C)c2)c2cccc(C(=O)O)c2n1C/C(F)=C/CN` [Compound 48, (Z)-1-(4-amino-2-fluorobut-2-en-1-yl)-3-(3-(N,N-dimethylsulfamoyl)phenyl)-2-methyl-1H-indole-7-carboxylic acid], for which the half-maximal inhibitory concentration (IC50) was over 0.3 µM in assay [1], under 0.3 µM in assay [2], over 3 µM in assay [3] and over 3 µM in assay [4].

In the case of `COc1ccc2c(c1)c(-c1cccc(S(=O)(=O)N(C)C)c1)c(C)n2C/C(F)=C/CN` [Compound 49, (Z)-3-(1-(4-amino-2-fluorobut-2-en-1-yl)-5-methoxy-2-methyl-1H-indol-3-yl)-N,N-dimethylbenzenesulfonamide], the IC50 is over 0.3 µM in assay [1], under 0.3 µM in assay [2], over 3 µM in assay [3] and over 3 µM in assay [4].

As to `Cc1c(-c2cccc(S(C)(=O)=O)c2)c2cc(C(=O)N(C)C)ccc2n1C/C(F)=C/CN` [Compound 50, (Z)-1-(4-amino-2-fluorobut-2-en-1-yl)-N,N,2-trimethyl-3-(3-(methylsulfonyl)phenyl)-1H-indole-5-carboxamide], the IC50 is over 0.3 µM in assay [1], under 0.3 µM in assay [2], over 3 µM in assay [3] and over 3 µM in assay [4].

`Cc1c(-c2cccc(S(=O)(=O)N(C)C)c2)c2cc(C#N)ccc2n1C/C(F)=C/CN` [Compound 51, (Z)-3-(1-(4-amino-2-fluorobut-2-en-1-yl)-5-cyano-2-methyl-1H-indol-3-yl)-N,N-dimethylbenzenesulfonamide]: the IC50 in assay [1] was over 0.3 µM; in assay [2] it was under 0.3 µM; in assay [3], over 3 µM; in assay [4] it was over 3 µM.

Take `Cc1c(-c2cccc(S(N)(=O)=O)c2)c2cc(C(=O)N(C)C)ccc2n1C/C(F)=C/CN` [Compound 54, (Z)-1-(4-amino-2-fluorobut-2-en-1-yl)-N,N,2-trimethyl-3-(3-sulfamoylphenyl)-1H-indole-5-carboxamide]: the IC50 in assay [1] is over 0.3 µM; in assay [2], under 0.3 µM; in assay [3], over 3 µM; in assay [4] it was over 3 µM.

For the compound `Cc1c(-c2cccc(S(=O)(=O)N(C)C)c2)c2cc(-c3ncon3)ccc2n1C/C(F)=C/CN` [Compound 55, (Z)-3-(1-(4-amino-2-fluorobut-2-en-1-yl)-2-methyl-5-(1,2,4-oxadiazol-3-yl)-1H-indol-3-yl)-N,N-dimethylbenzenesulfonamide], the IC50 in assay [1] is over 0.3 µM; in assay [2] it was under 0.3 µM; in assay [3], over 3 µM; in assay [4] it was over 3 µM.

Turning to `Cc1c(-c2cccc(C(F)(F)F)c2)c2cc(C(=O)N(C)C)ccc2n1C/C(F)=C/CN` [Compound 56, (Z)-1-(4-amino-2-fluorobut-2-en-1-yl)-N,N,2-trimethyl-3-(3-(trifluoromethyl)phenyl)-1H-indole-5-carboxamide], the IC50 in assay [1] is over 0.3 µM; in assay [2] it was under 0.3 µM; in assay [3] it was over 3 µM; in assay [4] it was over 3 µM.

As for `Cc1c(-c2cccc(S(=O)(=O)C(F)(F)F)c2)c2cc(C(=O)N(C)C)ccc2n1C/C(F)=C/CN` [Compound 57, (Z)-1-(4-amino-2-fluorobut-2-en-1-yl)-N,N,2-trimethyl-3-(3-((trifluoromethyl)sulfonyl)phenyl)-1H-indole-5-carboxamide], the half-maximal inhibitory concentration (IC50) in assay [1] is over 0.3 µM; in assay [2], under 0.3 µM; in assay [3], over 3 µM; in assay [4], over 3 µM.

Turning to `Cc1c(-c2cccc(S(=O)(=O)N(C)C)c2)c2cc(S(=O)(=O)N(C)C)ccc2n1C/C(F)=C/CN` [Compound 58, (Z)-1-(4-amino-2-fluorobut-2-en-1-yl)-3-(3-(N,N-dimethylsulfamoyl)phenyl)-N,N,2-trimethyl-1H-indole-5-sulfonamide], the IC50 in assay [1] was over 0.3 µM; in assay [2], under 0.3 µM; in assay [3] it was over 3 µM; in assay [4], over 3 µM.

Take `Cc1c(-c2cccc(S(=O)(=O)N(C)C)c2)c2cc(C(F)F)ccc2n1C/C(F)=C/CN` [Compound 59, (Z)-3-(1-(4-amino-2-fluorobut-2-en-1-yl)-5-(difluoromethyl)-2-methyl-1H-indol-3-yl)-N,N-dimethylbenzene-sulfonamide]: the IC50 in assay [1] was over 0.3 µM; in assay [2], under 0.3 µM; in assay [3] it was over 3 µM; in assay [4], over 3 µM.

With `Cc1c(-c2cccc(S(=O)(=O)N(C)C)c2)c2nc(O)ccc2n1C/C(F)=C/CN` [Compound 60, (Z)-3-(1-(4-amino-2-fluorobut-2-en-1-yl)-5-hydroxy-2-methyl-1H-pyrrolo[3,2-b]pyridin-3-yl)-N,N-dimethylbenzenesulfonamide Hydrochloride], the 50% inhibitory concentration (IC50) in assay [1] is over 0.3 µM; in assay [2], under 0.3 µM; in assay [3] it was over 3 µM; in assay [4], over 3 µM.

Take `COc1ccc2c(n1)c(-c1cccc(S(=O)(=O)N(C)C)c1)c(C)n2C/C(F)=C/CN` [Compound 61, (Z)-3-(1-(4-amino-2-fluorobut-2-en-1-yl)-5-methoxy-2-methyl-1H-pyrrolo[3,2-b]pyridin-3-yl)-N,N-dimethylbenzenesulfonamide Dihydrochloride]: the IC50 was over 0.3 µM in assay [1], under 0.3 µM in assay [2], over 3 µM in assay [3] and over 3 µM in assay [4].

`Cc1c(-c2cccc(S(=O)(=O)N(C)C)c2)c2cc(Cl)ccc2n1C/C(F)=C/CN` [Compound 62, (Z)-3-(1-(4-amino-2-fluorobut-2-en-1-yl)-5-chloro-2-methyl-1H-indol-3-yl)-N,N-dimethylbenzenesulfonamide]: the IC50 is over 0.3 µM in assay [1], under 0.3 µM in assay [2], over 3 µM in assay [3] and over 3 µM in assay [4].

For `Cc1c(-c2cncc(S(=O)(=O)N(C)C)c2)c2ccccc2n1C/C(F)=C/CN` [Compound 63, (Z)-5-(1-(4-amino-2-fluorobut-2-en-1-yl)-2-methyl-1H-indol-3-yl)-N,N-dimethylpyridine-3-sulfonamide], the IC50 in assay [1] was over 0.3 µM; in assay [2], under 0.3 µM; in assay [3] it was over 3 µM; in assay [4] it was over 3 µM.

As for `Cc1c(-c2cncc(S(=O)(=O)N(C)C)c2)c2cc(Cl)ccc2n1C/C(F)=C/CN` [Compound 64, (Z)-5-(1-(4-amino-2-fluorobut-2-en-1-yl)-5-chloro-2-methyl-1H-indol-3-yl)-N,N-dimethylpyridine-3-sulfonamide], the IC50 in assay [1] was over 0.3 µM; in assay [2] it was under 0.3 µM; in assay [3], over 3 µM; in assay [4], over 3 µM.

As for `Cc1c(-c2cncc(S(C)(=O)=O)c2)c2cc(Cl)ccc2n1C/C(F)=C/CN` [Compound 65, (Z)-4-(5-chloro-2-methyl-3-(5-(methylsulfonyl)pyridin-3-yl)-1H-indol-1-yl)-3-fluorobut-2-en-1-amine], the IC50 in assay [1] is over 0.3 µM; in assay [2], under 0.3 µM; in assay [3], over 3 µM; in assay [4], over 3 µM.

The values above are taken from patent US10717733B2, “Haloallylamine indole and azaindole derivative inhibitors of lysyl oxidases and uses thereof” (PHARMAXIS LTD., priority 2016, dated 2020).
